Here are results for five compounds from patent US4489096A, “Quinone compounds, their production and use” (Takeda Chemical Industries, Ltd., priority 1982, dated 1984).

In experiment [1] the test system is 5-lipoxygenase products (5-HETE) in RBL-1 cells. In words: Inhibition of 5-lipoxygenase products in RBL-1 cells (5-HETE production, HPLC). Conditions: Rattus norvegicus, 20 min, arachidonic acid + A-23187, 37° C., read-out: Percent inhibition of generation and release of 5-HETE; for inhibition at 10 µM: 10^-5 M test compound; for inhibition at 1 µM: 10^-6 M test compound. It counts as cell-based. The method, then:
RBL-1 cells (rat basophilic leukemia cells) (10^7 cells) were suspended in 0.5 ml of MCM (mast cell medium), the test solution (composed of 0.5 ml MCM, 50 μg arachidonic acid, 10 μg A-23187 and 10^-6 M or 10^-5 M quinone compound) was added, and the mixture was incubated at 37° C. for 20 minutes. Thereafter, 4 ml of ethanol and 1,4-dimethoxy-2-methyl-3-(3-methoxypropyl)naphthalene (internal standard) were added, and the mixture was shaken well, then allowed to stand at room temperature for 10 minutes, and centrifuged at 2,000 revolutions per minute for 10 minutes. The supernatant was collected and concentrated to about 200 μl under reduced pressure. A mixed solvent for high performance liquid chromatography [CH3 CN (1500)-CH3 OH (500)-water (1100)-acetic acid (2), adjusted to pH 5.6 with aqueous ammonia] was added to the concentrate to make up to 1 ml. A 200-μl portion of this solution was subjected to high performance liquid chromatography for assaying 5-HETE (5-hydroxyeicosatetraenoic acid).
The percentage of inhibition of 5-HETE production (IE) is expressed by (1-b/a)×100, where a is the peak height or area corrected relative to the internal standard peak for the quinone compound-free (control) test solution and b is the peak height or area corrected in relation to the internal standard peak for the quinone compound-containing test solution.

Experiment [2] relates to SRS-A generation and release. In words: Inhibitory effect on generation and release of SRS-A (sensitized guinea pig lung fragments, antigen egg white albumin). It counts as cell-based, guinea pigs (Hartley strain). Conditions: Cavia porcellus; 10^-6 M test compound; number of experiments 3; lung fragments from sensitized guinea pigs. The method, then: The compounds obtained in accordance with the invention were assayed for the inhibitory effect on the generation of SRS-A by the method of Orange and Moore [J. Immunol., vol. 116, page 392 (1976)]. Thus, the test compound and antigen (egg white albumin) were simultaneously added to the lung fragments from guinea pigs (Hartley strain, male and female, weighing 300-350 g) sensitized with egg white albumin as the antigen. The quantity of SRS-A generated and released on that occasion was determined by the method of Brocklehurst [J. Physiol., vol. 151, pages 416-435 (1960)].

On to `COC1=C(OC)C(=O)C(CCCCC#CCCCC#CC=O)=C(C)C1=O` [Ia-2], for which the inhibition at 10 µM in experiment [1] was determined as 84.3%. Also, the inhibition at 1 µM in experiment [1] was determined as 72.3%; in experiment [2], 66 ± 6%.
Taken in the same sequence, the figures for `COC1=C(OC)C(=O)C(CCCCC#CCCCC#CC(=O)O)=C(C)C1=O` [Ia-4] were 85.4%, 70.6% and 61 ± 8%.
In the same order, the values of `CC1=C(C)C(=O)C(CCCCC#CCCCC#CC=O)=C(C)C1=O` [Ia-1] are 83.5%, 71.6% and 59 ± 15%.
Taken in the same sequence, the figures for `CC1=C(C)C(=O)C(CCCCC#CCCCC#CC(=O)O)=C(C)C1=O` [Ia-3, 2,3,5-trimethyl-6-(11-carboxyundeca-5,10-diynyl)-1,4-benzoquinone] were 86.7%, 75.3% and 58 ± 6%.
Turning to `CCCCCC#CCC#CCC#CCC#CCCCC(=O)O` [ETYA, 5,8,11,14eicosatetraynoic acid, reference compound], in experiment [1], the inhibition at 10 µM stood at 39.4% and the inhibition at 1 µM amounted to 35.9%.
